target: T1, human FSH receptor (Homo sapiens, UniProt P23945); test: Antagonistic activity of compounds at the human FSH receptor expressed in CHO cells (CRE-luciferase reporter); format: cell-based; details: CHO cells stably transfected with human FSH receptor and CRE/luciferase reporter; together with 49 μM recFSH; 4 hours incubation; 1% DMSO; read-out: IC50 (concentration of test compound causing half-maximal inhibition of the maximally attainable inhibition of the luciferase stimulation)
T1 construct: expressed in transfected cells; host or cells: CHO cells, stably transfected; cotransfected with CRE-luciferase reporter
T1 sequence (P23945 18-695): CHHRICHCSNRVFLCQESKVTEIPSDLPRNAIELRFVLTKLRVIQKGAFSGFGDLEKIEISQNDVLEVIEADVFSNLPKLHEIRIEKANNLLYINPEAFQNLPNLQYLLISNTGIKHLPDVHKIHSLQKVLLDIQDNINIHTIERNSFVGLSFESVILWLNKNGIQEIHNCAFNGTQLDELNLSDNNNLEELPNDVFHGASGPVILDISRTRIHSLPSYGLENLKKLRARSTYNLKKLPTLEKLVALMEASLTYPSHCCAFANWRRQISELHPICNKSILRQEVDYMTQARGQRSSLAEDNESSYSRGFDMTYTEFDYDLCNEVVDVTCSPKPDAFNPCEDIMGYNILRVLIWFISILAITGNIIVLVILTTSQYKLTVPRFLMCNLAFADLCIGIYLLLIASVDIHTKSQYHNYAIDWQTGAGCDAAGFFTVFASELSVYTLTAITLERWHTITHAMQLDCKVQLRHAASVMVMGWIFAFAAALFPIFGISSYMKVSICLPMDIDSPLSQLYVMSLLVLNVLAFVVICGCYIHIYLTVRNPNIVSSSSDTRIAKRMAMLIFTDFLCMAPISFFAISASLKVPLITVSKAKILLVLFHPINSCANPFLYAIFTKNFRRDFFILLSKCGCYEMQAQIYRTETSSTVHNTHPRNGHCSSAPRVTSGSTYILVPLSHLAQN
Description: Antagonistic Activity of Compounds at the Human FSH Receptor Expressed in CHO Cells
Antagonistic activity of the compounds at the human FSH receptor was determined in Chinese Hamster Ovary (CHO) cells stably transfected with the human FSH receptor and cotransfected with a cAMP responsive element (CRE)/promotor directing the expression of a firefly luciferase reporter gene. Binding of the compounds to the Gs protein-coupled FSH receptor will result in an increase of cAMP, which in turn will induce an increased transactivation of the luciferase reporter. The cells (7,500 cells/well of a 384 well plate) were incubated in Dulbecco' minimal essential F12 modified medium (Invitrogen), supplemented with 1 μg/ml bovine insulin, 5 μg/ml human apo-transferrin, 100 U/ml penicillin G and 100 μg/ml streptomycin with the test compounds (concentration between 0.316 nM and 10.0 μM) in duplicate together with […] (which, at this concentration in the absence of test compound, induces 80% of the maximal luciferase stimulation) in a humidified atmosphere (95%) at 5-7% CO2 and 37° C. The final concentration of DMSO was 1%. After 4 hours of incubation, plates were allowed to adjust to room temperature for 1 hour. Then, SteadyLite (PerkinElmer) solution was added to the wells and cells were allowed to lyse for at least 1 hour at room temperature. Subsequently, luciferase activity was measured in a luminescence counter. The signal is expressed as counts per second (cps). The IC50 (concentration of test compound causing half-maximal (50%) inhibition of the maximally attainable inhibition of the luciferase stimulation by the compound) and efficacy of the compounds were determined using the software program MathIQ (version 2.3, ID Business Solutions Limited).

| IC50 [nM] | SMILES |
| --- | --- |
| < 100 | COc1cc2c(cc1-c1cccnc1OC)-c1cc(C(=O)N[C@@H](CO)Cc3c[nH]c4ccccc34)c(-c3cccs3)n1CC2 [Example 54, N—((R)-1-hydroxy-3-(1H-indol-3-yl)propan-2-yl)-8-methoxy-9-(2-methoxypyridin-3-yl)-3-(thiophen-2-yl)-5,6-dihydropyrrolo[2,1-a]isoquinoline-2-carboxamide] |
| < 100 | COc1cc(-c2cc3c(cc2OC)CCn2c-3cc(C(=O)N[C@@H](CO)Cc3c[nH]c4ccccc34)c2-c2cccs2)ccn1 [Example 57, (R)—N-(1-hydroxy-3-(1H-indol-3-yl)propan-2-yl)-8-methoxy-9-(2-methoxypyridin-4-yl)-3-(thiophen-2-yl)-5,6-dihydropyrrolo[2,1-a]isoquinoline-2-carboxamide] |
| < 100 | COc1ccc(-c2cc3c(cc2OC)CCn2c-3cc(C(=O)N[C@@H](CO)Cc3c[nH]c4ccccc34)c2-c2cccs2)cn1 [Example 58, (R)—N-(1-hydroxy-3-(1H-indol-3-yl)propan-2-yl)-8-methoxy-9-(6-methoxypyridin-3-yl)-3-(thiophen-2-yl)-5,6-dihydropyrrolo[2,1-a]isoquinoline-2-carboxamide] |
| < 100 | COc1cc2c(cc1-c1cn[nH]c1)-c1cc(C(=O)N[C@@H](CO)Cc3c[nH]c4ccccc34)c(-c3cccs3)n1CC2 [Example 59, (R)—N-(1-hydroxy-3-(1H-indol-3-yl)propan-2-yl)-8-methoxy-9-(1H-pyrazol-4-yl)-3-(thiophen-2-yl)-5,6-dihydropyrrolo[2,1-a]isoquinoline-2-carboxamide] |
| < 100 | COc1cc2c(c(OC)c1OC)CCn1c-2cc(C(=O)N[C@@H](CO)Cc2c[nH]c3ccccc23)c1-c1ccccc1 [Example 60, (R)—N-(1-hydroxy-3-(1H-indol-3-yl)propan-2-yl)-7,8,9-trimethoxy-3-phenyl-5,6-dihydropyrrolo[2,1-a]isoquinoline-2-carboxamide] |
| < 100 | COc1cc2c(c(OC)c1OC)CCn1c-2cc(C(=O)N[C@@H](CO)Cc2c[nH]c3ccccc23)c1-c1cccs1 [Example 61, (R)—N-(1-hydroxy-3-(1H-indol-3-yl)propan-2-yl)-7,8,9-trimethoxy-3-(thiophen-2-yl)-5,6-dihydropyrrolo[2,1-a]isoquinoline-2-carboxamide] |
| < 100 | COc1cc2c(c(OC)c1OC)CCn1c-2cc(C(=O)N[C@@H](CO)Cc2c[nH]c3ccccc23)c1-c1cccc(F)c1 [Example 62, (R)-3-(3-fluorophenyl)-N-(1-hydroxy-3-(1H-indol-3-yl)propan-2-yl)-7,8,9-trimethoxy-5,6-dihydropyrrolo[2,1-a]isoquinoline-2-carboxamide] |
| < 100 | COc1cc2c(c(OC)c1OC)-c1cc(C(=O)N[C@@H](CO)Cc3c[nH]c4ccccc34)c(-c3ccccc3)n1CC2 [Example 63, (R)—N-(1-hydroxy-3-(1H-indol-3-yl)propan-2-yl)-8,9,10-trimethoxy-3-phenyl-5,6-dihydropyrrolo[2,1-a]isoquinoline-2-carboxamide] |
| < 100 | COc1cc2c(c(OC)c1OC)-c1cc(C(=O)N[C@@H](CO)Cc3c[nH]c4ccccc34)c(-c3cccs3)n1CC2 [Example 64, (R)—N-(1-hydroxy-3-(1H-indol-3-yl)propan-2-yl)-8,9,10-trimethoxy-3-(thiophen-2-yl)-5,6-dihydropyrrolo[2,1-a]isoquinoline-2-carboxamide] |
| < 100 | COc1cc2c(c(OC)c1OC)-c1cc(C(=O)N[C@@H](CO)Cc3c[nH]c4ccccc34)c(-c3cccc(F)c3)n1CC2 [Example 65, (R)-3-(3-fluorophenyl)-N-(1-hydroxy-3-(1H-indol-3-yl)propan-2-yl)-8,9,10-trimethoxy-5,6-dihydropyrrolo[2,1-a]isoquinoline-2-carboxamide] |

Further lines, the compound ahead of its results:

| SMILES | IC50 [nM] |
| --- | --- |
| COc1cc2c(cc1C(=O)N(C)C)-c1cc(C(=O)N[C@@H](CO)Cc3c[nH]c4ccccc34)c(-c3cccc(F)c3)n1CC2 [Example 48, (R)-3-(3-fluorophenyl)-N2-(1-hydroxy-3-(1H-indol-3-yl)propan-2-yl)-8-methoxy-N9,N9-dimethyl-5,6-dihydropyrrolo[2,1-a]isoquinoline-2,9-dicarboxamide] | 100 to 1000 |
| COc1cc2c(cc1-c1cncnc1)-c1cc(C(=O)N[C@@H](CO)Cc3c[nH]c4ccccc34)c(-c3cccs3)n1CC2 [Example 49, (R)—N-(1-hydroxy-3-(1H-indol-3-yl)propan-2-yl)-8-methoxy-9-(pyrimidin-5-yl)-3-(thiophen-2-yl)-5,6-dihydropyrrolo[2,1-a]isoquinoline-2-carboxamide] | < 100 |
| COc1cc2c(cc1-c1cncnc1)-c1cc(C(=O)N[C@@H](CO)Cc3c[nH]c4ccccc34)c(-c3cccc(F)c3)n1CC2 [Example 50, (R)-3-(3-fluorophenyl)-N-(1-hydroxy-3-(1H-indol-3-yl)propan-2-yl)-8-methoxy-9-(pyrimidin-5-yl)-5,6-dihydropyrrolo[2,1-a]isoquinoline-2-carboxamide] | < 100 |
| COc1cc2c(cc1-c1cnc(N(C)C)nc1)-c1cc(C(=O)N[C@@H](CO)Cc3c[nH]c4ccccc34)c(-c3cccc(F)c3)n1CC2 [Example 51, (R)-9-(2-(dimethylamino)pyrimidin-5-yl)-3-(3-fluorophenyl)-N-(1-hydroxy-3-(1H-indol-3-yl)propan-2-yl)-8-methoxy-5,6-dihydropyrrolo[2,1-a]isoquinoline-2-carboxamide] | 100 to 1000 |
| COc1cc2c(cc1-c1cnn(C)c1)-c1cc(C(=O)N[C@@H](CO)Cc3c[nH]c4ccccc34)c(-c3cccc(F)c3)n1CC2 [Example 52, (R)-3-(3-fluorophenyl)-N-(1-hydroxy-3-(1H-indol-3-yl)propan-2-yl)-8-methoxy-9-(1-methyl-1H-pyrazol-4-yl)-5,6-dihydropyrrolo[2,1-a]isoquinoline-2-carboxamide] | < 100 |
| COc1cc2c(cc1-c1cccnc1OC)-c1cc(C(=O)N[C@@H](CO)Cc3c[nH]c4ccccc34)c(-c3cccc(F)c3)n1CC2 [Example 53, 3-(3-fluorophenyl)-N—((R)-1-hydroxy-3-(1H-indol-3-yl)propan-2-yl)-8-methoxy-9-(2-methoxypyridin-3-yl)-5,6-dihydropyrrolo[2,1-a]isoquinoline-2-carboxamide] | < 100 |
| COc1cc2c(cc1-c1cnn(C)c1)-c1cc(C(=O)N[C@@H](CO)Cc3c[nH]c4ccccc34)c(-c3cccs3)n1CC2 [Example 55, (R)—N-(1-hydroxy-3-(1H-indol-3-yl)propan-2-yl)-8-methoxy-9-(1-methyl-1H-pyrazol-4-yl)-3-(thiophen-2-yl)-5,6-dihydropyrrolo[2,1-a]isoquinoline-2-carboxamide] | < 100 |
| COc1cc2c(cc1-c1cnc(N(C)C)nc1)-c1cc(C(=O)N[C@@H](CO)Cc3c[nH]c4ccccc34)c(-c3cccs3)n1CC2 [Example 56, (R)-9-(2-(dimethylamino)pyrimidin-5-yl)-N-(1-hydroxy-3-(1H-indol-3-yl)propan-2-yl)-8-methoxy-3-(thiophen-2-yl)-5,6-dihydropyrrolo[2,1-a]isoquinoline-2-carboxamide] | < 100 |
| COc1cc2c(cc1OC)-c1nc(C(=O)N[C@@H](CO)Cc3c[nH]c4ccccc34)c(-c3cccc(F)c3)n1CC2 [Example 66, (R)-3-(3-fluorophenyl)-N-(1-hydroxy-3-(1H-indol-3-yl)propan-2-yl)-8,9-dimethoxy-5,6-dihydroimidazo[2,1-a]isoquinoline-2-carboxamide] | 100 to 1000 |
| COc1cc2c(cc1OC)-c1nc(C(=O)N[C@@H](CO)Cc3c[nH]c4ccccc34)c(-c3ccccc3F)n1CC2 [Example 67, 3-(2-fluorophenyl)-N—((R)-1-hydroxy-3-(1H-indol-3-yl)propan-2-yl)-8,9-dimethoxy-5,6-dihydroimidazo[2,1-a]isoquinoline-2-carboxamide] | 100 to 1000 |

Source: US10155259B2 (Merck Sharp & Dohme B.V., priority 2011, dated 2018)
